Patent US8134007B2, “Pyridine derivatives” (Pfizer Inc., priority 2007, dated 2012)
Read-outs that look alike come from different tables or passages of the source.

What was measured:
Format in all cases: cell-based
[1] = biological target: T1, Human Nav1.5 (Homo sapiens, UniProt Q14524); assay: Nav1.5 Assay (VIPR, HEK293 cells); details: HEK293 cells expressing Human Nav1.5; average of replicates; read-out: Nav1.5 IC50
T1 construct: expressed in transfected cells; host or cells: HEK293
Description: The Nav1.5 assay is performed in HEK293 cells expressing Human Nav1.5 in the same way as the Nav1.8 assay.
Where replicate experiments were conducted resulting in multiple sets of data for a test compound, the data presented represent the average value from all replicate experiments.

[2] = system: tetrodotoxin-sensitive voltage-gated sodium channels including NaV1.2, NaV1.3 and NaV1.7; assay: TTX-S Assay (VIPR, SHSY-5Y cell line, veratridine opener)
[3] = biological target: T2, Human Nav1.8 (Homo sapiens, UniProt Q9Y5Y9); assay: VIPR Assay for Nav1.8 Compounds (FRET membrane potential, deltamethrin opener); details: VIPR FRET membrane potential assay, deltamethrin opener; average of replicates; read-out: Nav1.8 IC50
T2 construct: expressed in transfected cells; host or cells: HEK293

[4] = read-out: TTX-S IC50, veratridine 50 μM opener, average of replicates

T2 sequence (Q9Y5Y9 whole entry): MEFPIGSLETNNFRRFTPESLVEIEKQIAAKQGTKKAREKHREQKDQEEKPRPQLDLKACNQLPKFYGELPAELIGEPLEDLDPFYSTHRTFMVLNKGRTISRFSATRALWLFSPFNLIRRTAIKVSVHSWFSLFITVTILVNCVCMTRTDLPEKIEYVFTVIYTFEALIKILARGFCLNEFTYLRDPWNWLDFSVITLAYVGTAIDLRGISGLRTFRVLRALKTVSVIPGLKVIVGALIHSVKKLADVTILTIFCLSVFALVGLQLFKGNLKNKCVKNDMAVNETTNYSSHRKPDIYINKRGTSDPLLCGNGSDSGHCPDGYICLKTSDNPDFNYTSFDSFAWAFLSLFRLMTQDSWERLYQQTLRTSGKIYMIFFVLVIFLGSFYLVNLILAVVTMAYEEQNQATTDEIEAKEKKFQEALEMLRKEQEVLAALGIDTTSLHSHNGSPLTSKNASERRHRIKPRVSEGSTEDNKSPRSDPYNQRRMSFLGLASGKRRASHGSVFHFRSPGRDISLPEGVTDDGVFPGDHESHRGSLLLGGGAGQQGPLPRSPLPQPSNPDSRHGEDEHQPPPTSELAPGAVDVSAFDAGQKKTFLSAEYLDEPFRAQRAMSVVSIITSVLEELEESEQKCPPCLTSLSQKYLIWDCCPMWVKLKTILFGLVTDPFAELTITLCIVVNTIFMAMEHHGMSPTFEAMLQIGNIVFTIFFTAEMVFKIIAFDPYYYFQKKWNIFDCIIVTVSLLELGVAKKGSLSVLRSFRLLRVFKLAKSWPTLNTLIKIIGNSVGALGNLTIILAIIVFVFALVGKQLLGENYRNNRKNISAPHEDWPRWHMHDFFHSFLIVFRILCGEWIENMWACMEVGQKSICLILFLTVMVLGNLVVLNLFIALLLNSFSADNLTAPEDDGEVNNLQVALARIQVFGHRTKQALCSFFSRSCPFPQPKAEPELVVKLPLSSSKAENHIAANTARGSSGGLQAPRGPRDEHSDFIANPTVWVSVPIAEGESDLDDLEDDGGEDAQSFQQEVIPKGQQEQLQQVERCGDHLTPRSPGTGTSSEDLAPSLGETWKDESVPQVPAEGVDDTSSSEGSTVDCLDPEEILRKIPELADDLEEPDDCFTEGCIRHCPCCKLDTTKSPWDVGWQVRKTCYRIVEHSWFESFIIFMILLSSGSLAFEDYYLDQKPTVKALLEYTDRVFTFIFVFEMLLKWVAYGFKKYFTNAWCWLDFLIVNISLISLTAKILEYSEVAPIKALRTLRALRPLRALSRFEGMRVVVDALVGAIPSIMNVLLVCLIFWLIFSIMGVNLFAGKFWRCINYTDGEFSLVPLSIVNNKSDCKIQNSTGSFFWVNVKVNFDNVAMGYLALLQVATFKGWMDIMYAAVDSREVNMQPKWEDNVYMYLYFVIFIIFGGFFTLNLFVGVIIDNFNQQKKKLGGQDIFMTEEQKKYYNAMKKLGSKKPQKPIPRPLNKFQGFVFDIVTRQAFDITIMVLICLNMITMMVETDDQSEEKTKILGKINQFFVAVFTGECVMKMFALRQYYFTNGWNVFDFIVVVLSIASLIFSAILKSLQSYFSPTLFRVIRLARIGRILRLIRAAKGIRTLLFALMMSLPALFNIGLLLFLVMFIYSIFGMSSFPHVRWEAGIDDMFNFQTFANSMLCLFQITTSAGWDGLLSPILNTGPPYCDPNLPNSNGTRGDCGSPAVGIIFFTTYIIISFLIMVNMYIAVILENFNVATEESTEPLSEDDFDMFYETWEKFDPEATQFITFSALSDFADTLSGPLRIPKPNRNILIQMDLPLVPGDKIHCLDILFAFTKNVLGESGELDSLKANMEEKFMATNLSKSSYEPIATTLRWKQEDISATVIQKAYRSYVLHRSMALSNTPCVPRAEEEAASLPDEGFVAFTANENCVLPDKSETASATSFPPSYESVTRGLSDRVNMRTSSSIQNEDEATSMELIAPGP
T1 sequence (Q14524 whole entry): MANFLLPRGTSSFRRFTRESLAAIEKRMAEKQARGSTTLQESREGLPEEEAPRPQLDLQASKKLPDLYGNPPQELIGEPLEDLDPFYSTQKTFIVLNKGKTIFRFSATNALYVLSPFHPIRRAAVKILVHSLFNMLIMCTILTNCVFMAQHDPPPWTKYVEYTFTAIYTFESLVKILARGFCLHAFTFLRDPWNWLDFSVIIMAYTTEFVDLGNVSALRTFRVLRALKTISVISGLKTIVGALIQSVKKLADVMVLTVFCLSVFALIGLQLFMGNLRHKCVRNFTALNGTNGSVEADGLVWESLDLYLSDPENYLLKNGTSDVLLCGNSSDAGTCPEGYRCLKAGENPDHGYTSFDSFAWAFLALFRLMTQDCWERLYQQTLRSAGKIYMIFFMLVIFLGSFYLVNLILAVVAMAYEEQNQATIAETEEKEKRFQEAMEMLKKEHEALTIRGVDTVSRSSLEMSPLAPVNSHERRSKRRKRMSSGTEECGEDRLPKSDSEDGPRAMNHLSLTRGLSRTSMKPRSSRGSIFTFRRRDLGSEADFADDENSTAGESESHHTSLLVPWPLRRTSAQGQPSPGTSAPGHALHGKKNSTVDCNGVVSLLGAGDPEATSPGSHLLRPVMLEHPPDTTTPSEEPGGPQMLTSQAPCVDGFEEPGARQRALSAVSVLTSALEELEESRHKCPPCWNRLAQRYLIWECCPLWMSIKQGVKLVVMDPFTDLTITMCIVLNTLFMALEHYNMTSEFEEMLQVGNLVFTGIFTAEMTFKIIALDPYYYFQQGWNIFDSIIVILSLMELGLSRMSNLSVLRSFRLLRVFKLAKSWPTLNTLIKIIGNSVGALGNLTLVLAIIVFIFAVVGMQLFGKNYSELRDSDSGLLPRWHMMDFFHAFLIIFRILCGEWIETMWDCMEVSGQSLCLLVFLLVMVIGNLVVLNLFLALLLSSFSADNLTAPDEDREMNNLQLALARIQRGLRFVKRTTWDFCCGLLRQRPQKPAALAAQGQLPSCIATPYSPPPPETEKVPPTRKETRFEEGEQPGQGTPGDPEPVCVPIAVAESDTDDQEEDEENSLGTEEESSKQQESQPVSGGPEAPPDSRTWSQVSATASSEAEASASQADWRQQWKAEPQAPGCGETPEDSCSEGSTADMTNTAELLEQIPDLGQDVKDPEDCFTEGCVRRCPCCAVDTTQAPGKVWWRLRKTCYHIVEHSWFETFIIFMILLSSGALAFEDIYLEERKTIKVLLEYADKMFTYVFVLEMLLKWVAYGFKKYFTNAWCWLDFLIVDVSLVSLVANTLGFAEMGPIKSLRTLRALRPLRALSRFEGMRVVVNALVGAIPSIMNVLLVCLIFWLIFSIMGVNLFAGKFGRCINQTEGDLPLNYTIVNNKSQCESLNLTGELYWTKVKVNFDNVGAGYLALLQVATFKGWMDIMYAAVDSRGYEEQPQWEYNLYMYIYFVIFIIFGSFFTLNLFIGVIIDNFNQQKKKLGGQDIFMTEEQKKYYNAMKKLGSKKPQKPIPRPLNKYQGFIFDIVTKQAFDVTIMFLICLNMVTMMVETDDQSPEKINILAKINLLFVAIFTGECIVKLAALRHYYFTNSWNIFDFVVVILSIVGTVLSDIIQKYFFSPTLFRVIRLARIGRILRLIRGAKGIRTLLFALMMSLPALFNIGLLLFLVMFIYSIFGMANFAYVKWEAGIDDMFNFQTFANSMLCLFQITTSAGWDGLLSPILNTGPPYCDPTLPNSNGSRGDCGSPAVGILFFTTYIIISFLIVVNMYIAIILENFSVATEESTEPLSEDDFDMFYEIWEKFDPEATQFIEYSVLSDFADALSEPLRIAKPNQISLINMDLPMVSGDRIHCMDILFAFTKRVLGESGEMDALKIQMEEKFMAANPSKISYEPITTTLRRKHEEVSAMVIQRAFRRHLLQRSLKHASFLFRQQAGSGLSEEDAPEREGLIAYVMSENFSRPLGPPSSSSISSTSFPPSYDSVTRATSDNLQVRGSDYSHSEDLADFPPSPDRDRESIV

SMILES	IC50 [1] [µM]	IC50 [2, 4] [µM]	IC50 [3] [µM]	IC50 ([2]; veratridine 50 μM opener, average of replicates, read-out: TTX-S IC50) [µM]
Cn1nccc1C(=O)Nc1ccc(-c2ccccc2Cl)c(N)n1 [Example 1, N-[6-Amino-5-(2-chlorophenyl)pyridin-2-yl]-1-methyl-1H-pyrazole-5-carboxamide]	24	> 32	5.8	–
Cc1nocc1C(=O)Nc1ccc(-c2ccccc2C(F)(F)F)c(N)n1 [Example 2, N-{6-Amino-5-[2-(trifluoromethyl)phenyl]pyridin-2-yl}-3-methylisoxazole-4-carboxamide]	> 32	30	1.7	–
Cn1nccc1C(=O)Nc1ccc(-c2cc(Cl)ccc2Cl)c(N)n1 [Example 3, N-[6-Amino-5-(2,5-dichlorophenyl)pyridin-2-yl]-1-methyl-1H-pyrazole-5-carboxamide]	15	11	0.9	–
COc1ccc(Cl)c(-c2ccc(NC(=O)c3ccnn3C)nc2N)c1 [Example 5, N-[6-Amino-5-(2-chloro-5-methoxyphenyl)pyridin-2-yl]-1-methyl-1H-pyrazole-5-carboxamide]	> 32	> 32	0.9	–
Cn1nccc1C(=O)Nc1ccc(-c2cc(F)ccc2Cl)c(N)n1 [Example 6, N-[6-Amino-5-(2-chloro-5-fluorophenyl)pyridin-2-yl]-1-methyl-1H-pyrazole-5-carboxamide]	13	23	1.1	–
COc1cc(Cl)c(Cl)c(-c2ccc(NC(=O)c3ccnn3C)nc2N)c1 [Example 7, N-[6-Amino-5-(2,3-dichloro-5-methoxyphenyl)pyridin-2-yl]-1-methyl-1H-pyrazole-5-carboxamide]	6.3	9.2	0.63	–
COc1cc(Cl)cc(-c2ccc(NC(=O)c3ccnn3C)nc2N)c1Cl [Example 8, N-[6-Amino-5-(2,5-dichloro-3-methoxyphenyl)pyridin-2-yl]-1-methyl-1H-pyrazole-5-carboxamide]	20	7.6	1.6	–
Cn1nccc1C(=O)Nc1ccc(-c2cccc(Cl)c2Cl)c(N)n1 [Example 9, N-[6-Amino-5-(2,3-dichlorophenyl)pyridin-2-yl]-1-methyl-1H-pyrazole-5-carboxamide]	27	> 32	4.2	–
Cn1nccc1C(=O)Nc1ccc(-c2ccc(F)cc2Cl)c(N)n1 [Example 10, N-[6-Amino-5-(2-chloro-4-fluorophenyl)pyridin-2-yl]-1-methyl-1H-pyrazole-5-carboxamide]	> 32	> 32	25	–
Cn1nccc1C(=O)Nc1ccc(-c2ccccc2OC(F)(F)F)c(N)n1 [Example 11, N-{6-Amino-5-[2-(trifluoromethoxy)pheny]pyridin-2-yl}-1-methyl-1H-pyrazole-5-carboxamide]	18	–	2.4	11
Cn1nccc1C(=O)Nc1ccc(-c2cc(F)ccc2C(F)(F)F)c(N)n1 [Example 12, N-{6-Amino-5-[5-fluoro-2-(trifluoromethyl)phenyl]pyridin-2-yl}-1-methyl-1H-pyrazole-5-carboxamide]	> 32	> 32	3	–
Cn1nccc1C(=O)Nc1ccc(-c2cccc(F)c2Cl)c(N)n1 [Example 13, N-[6-Amino-5-(2-chloro-3-fluorophenyl)pyridin-2-yl]-1-methyl-1H-pyrazole-5-carboxamide]	> 32	> 32	8.8	–
Cn1nccc1C(=O)Nc1ccc(-c2ccccc2C(F)(F)F)c(N)n1 [Example 14, N-{6-Amino-5-[2-(trifluoromethyl)phenyl]pyridin-2-yl}-1-methyl-1H-pyrazole-5-carboxamide]	> 32	> 32	8.4	–
Cn1nccc1C(=O)Nc1ccc(-c2ccc(Cl)cc2Cl)c(N)n1 [Example 15, N-[6-Amino-5-(2,4-dichlorophenyl)pyridin-2-yl]-1-methyl-1H-pyrazole-5-carboxamide]	13	21	10	–
Cn1nccc1C(=O)Nc1ccc(-c2cc(Cl)ccc2OC(F)(F)F)c(N)n1 [Example 16, N-{6-Amino-5-[5-chloro-2-(trifluoromethoxy)phenyl]pyridin-2-yl}-1-methyl-1H-pyrazole-5-carboxamide]	11	9.6	1.9	–
Cn1nccc1C(=O)Nc1ccc(-c2cc(OC(F)(F)F)ccc2F)c(N)n1 [Example 17, N-{6-Amino-5-[2-fluoro-5-(trifluoromethoxy)phenyl]pyridin-2-yl}-1-methyl-1H-pyrazole-5-carboxamide]	19	7.7	3.4	–
Cn1nccc1C(=O)Nc1ccc(-c2cc(OC(F)(F)F)ccc2Cl)c(N)n1 [Example 18, N-{6-Amino-5-[2-chloro-5-(trifluoromethoxy)phenyl]pyridin-2-yl}-1-methyl-1H-pyrazole-5-carboxamide]	8.5	1.8	1.6	–
Cn1nccc1C(=O)Nc1ccc(-c2ccccc2OC(F)F)c(N)n1 [Example 19, N-{6-Amino-5-[2-(difluoromethoxy)phenyl]pyridin-2-yl}-1-methyl-1H-pyrazole-5-carboxamide]	> 32	25	14	–
Cc1oncc1C(=O)Nc1ccc(-c2ccccc2Cl)c(N)n1 [Example 20, N-[6-Amino-5-(2-chlorophenyl)pyridin-2-yl]-5-methylisoxazole-4-carboxamide]	17	14	1	–

SMILES	IC50 [1] [µM]	IC50 [2, 4] [µM]	IC50 [3] [µM]	IC50 ([2]; veratridine 50 μM opener, average of replicates, read-out: TTX-S IC50) [µM]
Cc1oncc1C(=O)Nc1ccc(-c2ccccc2OC(F)(F)F)c(N)n1 [Example 23, N-{6-Amino-5-[2-(trifluoromethoxy)phenyl]pyridin-2-yl}-5-methylisoxazole-4-carboxamide]	17	9.4	1.6	–
COc1ccc(Cl)c(-c2ccc(NC(=O)c3conc3C)nc2N)c1 [Example 24, N-[6-Amino-5-(2-chloro-5-methoxyphenyl)pyridin-2-yl]-3-methylisoxazole-4-carboxamide]	8.5	11	0.44	–
Cc1nocc1C(=O)Nc1ccc(-c2ccccc2Cl)c(N)n1 [Example 26, N-[6-Amino-5-(2-chlorophenyl)pyridin-2-yl]-3-methylisoxazole-4-carboxamide]	11	8.5	0.56	–
COc1cc(Cl)cc(-c2ccc(NC(=O)c3conc3C)nc2N)c1Cl [Example 27, N-[6-Amino-5-(2,5-dichloro-3-methoxyphenyl)pyridin-2-yl]-3-methylisoxazole-4-carboxamide]	10	3.2	0.37	–
COc1cc(Cl)c(Cl)c(-c2ccc(NC(=O)c3conc3C)nc2N)c1 [Example 29, N-[6-Amino-5-(2,3-dichloro-5-methoxyphenyl)pyridin-2-yl]-3-methylisoxazole-4-carboxamide]	6.4	8.2	0.55	–
Cc1nocc1C(=O)Nc1ccc(-c2cc(Cl)cc3c2OCCO3)c(N)n1 [Example 30, N-[6-Amino-5-(7-chloro-2,3-dihydro-1,4-benzodioxin-5-yl)pyridin-2-yl]-3-methylisoxazole-4-carboxamide]	16	28	1.3	–
Nc1nc(NC(=O)c2ccno2)ccc1-c1cc(Cl)ccc1Cl [Example 75, N-[6-Amino-5-(2,5-dichlorophenyl)pyridin-2-yl]isoxazole-5-carboxamide]	–	24	1.4	–
COc1ccc(Cl)c(-c2ccc(NC(=O)c3ccno3)nc2N)c1 [Example 76, N-[6-Amino-5-(2-chloro-5-methoxyphenyl)pyridin-2-yl]isoxazole-5-carboxamide]	–	6.5	0.86	–
Nc1nc(NC(=O)c2ccno2)ccc1-c1ccccc1Cl [Example 77, N-[6-Amino-5-(2-chlorophenyl)pyridin-2-yl]isoxazole-5-carboxamide]	–	> 32	5	–
Cn1nncc1C(=O)Nc1ccc(-c2ccc(Cl)cc2Cl)c(N)n1 [Example 79, N-[6-Amino-5-(2,4-dichlorophenyl)pyridin-2-yl]-1-methyl-1H-1,2,3-triazole-5-carboxamide]	–	22	5.8	–
Nc1nc(NC(=O)c2ccccc2)ccc1-c1cc(Cl)ccc1Cl [Example 97]	–	5.4	1.9	–
Nc1nc(NC(=O)c2ccccc2)ccc1-c1ccccc1Cl [Example 98]	–	10	2	–
Nc1nc(NC(=O)c2ccc(Cl)cc2)ccc1-c1cc(Cl)ccc1Cl [Example 100]	–	4.4	6.3	–
Nc1nc(NC(=O)c2ccccc2Cl)ccc1-c1cc(Cl)ccc1Cl [Example 101]	–	6.2	3.7	–
COc1cccc(C(=O)Nc2ccc(-c3cc(Cl)ccc3Cl)c(N)n2)c1 [Example 102]	–	5.4	2.3	–
COc1ccc(C(=O)Nc2ccc(-c3cc(Cl)ccc3Cl)c(N)n2)cc1OC [Example 103]	–	8.4	4.1	–
COc1cc(OC)cc(C(=O)Nc2ccc(-c3cc(Cl)ccc3Cl)c(N)n2)c1 [Example 104]	–	8	3.3	–
COc1ccc(C(=O)Nc2ccc(-c3cc(Cl)ccc3Cl)c(N)n2)c(OC)c1 [Example 105]	–	7.7	3.5	–
